# Assays:
# [1] = tested on: Common Sunflower (Helianthus annuus); assay: General postemergence herbicidal activity, HELAN; assay type: in vivo; details: post-emergent, 280 g ai/ha, visual score after 14 days (0 = no injury, 100 = complete kill)
# Experimental: (§1) Seeds or nutlets of the desired test plant species were planted in Sun Gro MetroMix® 306 planting mixture, which typically has a pH of 6.0 to 6.8 and an organic matter content of about 30 percent, in plastic pots with a surface area of 64 square centimeters. When required to ensure good germination and healthy plants, a fungicide treatment and/or other chemical or physical treatment was applied. The plants were grown for 7-21 days in a greenhouse with an approximate 15 hour photoperiod which was maintained at about 23-29° C. during the day and 22-28° C. during the night. Nutrients and water were added on a regular basis and supplemental lighting was provided with overhead metal halide 1000-Watt lamps as necessary. The plants were employed for testing when they reached the first or second true leaf stage.
# (§2) A weighed amount, determined by the highest rate to be tested, of each test compound was dissolved in 4 mL of a 97:3 v/v (volume/volume) mixture of acetone and dimethyl sulfoxide (DMSO) to obtain concentrated stock solutions. […] The concentrated stock solutions obtained were diluted with 20 mL of an aqueous mixture containing acetone, water, isopropyl alcohol, DMSO, Atplus 411F crop oil concentrate, and Triton® X-155 surfactant in a 48.5:39:10:1.5:1.0:0.02 v/v ratio to obtain spray solutions containing the highest application rates. […]
# (§3) The treated plants and control plants were placed in a greenhouse as described above and watered by sub-irrigation to prevent wash-off of the test compounds. After 14 days, the condition of the test plants as compared with that of the untreated plants was determined visually and scored on a scale of 0 to 100 percent where 0 corresponds to no injury and 100 corresponds to complete kill.
# [2] = tested on: Lambsquarters (Chenopodium album); assay: General postemergence herbicidal activity, CHEAL; assay type: in vivo; details: post-emergent, 280 g ai/ha, visual score after 14 days (0 = no injury, 100 = complete kill)
# Experimental: as §1, §2, §3
# [3] = tested on: Redroot Pigweed (Amatanthus retroflexus); assay: General postemergence herbicidal activity, AMARE; assay type: in vivo; details: post-emergent, 280 g ai/ha, visual score after 14 days (0 = no injury, 100 = complete kill)
# Experimental: as §1, §2, §3
# [4] = tested on: Wild Pointsettia (Euphorbia heterophylla); assay: General postemergence herbicidal activity, EPHHL; assay type: in vivo; details: post-emergent, 280 g ai/ha, visual score after 14 days (0 = no injury, 100 = complete kill)
# Experimental: as §1, §2, §3
melting point [°C],Compound,% Growth Reduction HELAN [1] [%],% Growth Reduction CHEAL [2] [%],% Growth Reduction AMARE [3] [%],% Growth Reduction EPHHL [4] [%]
215 to 217,"COC(=O)c1nc(-c2ccc(Cl)c(OC)c2F)nc(O)c1Cl [Compound 1, 6-hydroxy-2-(4-chloro-2-fluoro-3-methoxyphenyl)-5-chloropyrimidine-4-carboxylic acid methyl ester]",90,100,100,100
192 to 195,"COC(=O)c1nc(-c2ccc(Cl)c(OC)c2F)nc(O)c1Br [Compound 2, 6-hydroxy-2-(4-chloro-2-fluoro-3-methoxyphenyl)-5-bromopyrimidine-4-carboxylic acid methyl ester]",85,95,100,100
177 to 179,"COC(=O)c1nc(-c2ccc(Cl)c(OC)c2F)nc(O)c1OC [Compound 3, 6-hydroxy-2-(4-chloro-2-fluoro-3-methoxyphenyl)-5-methoxypyrimidine-4-carboxylic acid methyl ester]",10,90,40,100
